# From patent publication US20240279241A1, “PYRIDO[4,3-D]PYRIMIDINE COMPOUNDS CAPABLE OF INHIBITING KRAS MUTANT PROTEINS” (Redx Pharma PLC, priority 2021, published 2024)
# Read-outs that look alike come from different tables or passages of the source.
# How the values were obtained:
# Assay type in all cases: biochemical
# [1] = target: T1, KRAS G12D (Homo sapiens, UniProt P01116, G12D); assay: HTRF nucleotide exchange assay (NEA), KRAS G12D; conditions: recombinant human KRAS G12D aa1-188, 2 nM; lowest class = % inhibition at 10 μM
# T1 construct: Recombinant human RAS protein (2 nM)
# Procedure: (§1) The capacity of compounds to bind KRAS G12D, other KRAS mutants and wildtype RAS isoforms was quantified using a HTRF nucleotide exchange assay. Recombinant human RAS protein (2 nM; aa1-188 KRAS WT, HRAS WT, NRAS WT, or KRAS containing the containing the G12D, G13D or Q61H amino acid substitutions, or 4 nM KRAS; aa1-188 containing the G12V, G12C, G12A or G12S amino acid substitution, an N-terminal 6×His-tag and leader sequence), and 2 nM Europium-labeled anti-6×His antibody were mixed in assay buffer (10 mM HEPES pH7.3, 150 mM NaCl, 5 mM MgCl2, 0.05% BSA, 0.0025% NP-40 and 100 mM KF) with various concentrations of compound in a 384-well plate and a volume of 5 uL. After a 60-minute incubation at room temperature, 5 ul of 200 nM EDA-GTP-DY647P1 (diluted in assay buffer) was added to the plate. Following 30-minute incubation at room temperature, time-resolved fluorescence was measured on a PerkinElmer Envision plate reader. DMSO (0.3%) and unlabeled […] (1 μM) or equivalent tool compound were used to generate the Max and Min assay signals, respectively. Data was analysed using a four-parameter logistic model to calculate IC50 values, with at least two independent replicates were performed for each compound.
# [2] = target: T2, KRAS WT (Homo sapiens, UniProt P01116); assay: HTRF nucleotide exchange assay (NEA), KRAS WT
# T2 construct: Recombinant human RAS protein (2 nM); aa1-188 KRAS WT
# Procedure: as §1
# [3] = target: T3, KRAS G12C (Homo sapiens, UniProt P01116, G12C); assay: HTRF nucleotide exchange assay (NEA), KRAS G12C
# T3 construct: 4 nM KRAS; aa1-188 containing the G12V, G12C, G12A or G12S amino acid substitution
# Procedure: as §1
# [4] = target: T4, KRAS G12V (Homo sapiens, UniProt P01116, G12V); assay: HTRF nucleotide exchange assay (NEA), KRAS G12V
# T4 construct: 4 nM KRAS; aa1-188 containing the G12V, G12C, G12A or G12S amino acid substitution
# Procedure: as §1
# [5] = recombinant human KRAS WT aa1-188, 2 nM, lowest class = % inhibition at 10 μM
# T3 sequence (P01116 1-188 isoform P01116-2 G12C): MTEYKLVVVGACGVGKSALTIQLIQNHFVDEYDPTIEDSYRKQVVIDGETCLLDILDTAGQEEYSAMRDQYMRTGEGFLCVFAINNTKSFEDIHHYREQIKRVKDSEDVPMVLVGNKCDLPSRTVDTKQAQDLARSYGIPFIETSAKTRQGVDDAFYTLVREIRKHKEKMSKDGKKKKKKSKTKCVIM
# T4 sequence (P01116 1-188 isoform P01116-2 G12V): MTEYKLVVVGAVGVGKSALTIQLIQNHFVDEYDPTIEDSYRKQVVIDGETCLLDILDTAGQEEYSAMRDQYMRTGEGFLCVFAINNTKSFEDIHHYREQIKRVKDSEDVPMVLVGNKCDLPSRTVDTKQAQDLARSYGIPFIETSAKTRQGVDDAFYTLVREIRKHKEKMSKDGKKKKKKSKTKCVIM
# T1 sequence (P01116 1-188 isoform P01116-2 G12D): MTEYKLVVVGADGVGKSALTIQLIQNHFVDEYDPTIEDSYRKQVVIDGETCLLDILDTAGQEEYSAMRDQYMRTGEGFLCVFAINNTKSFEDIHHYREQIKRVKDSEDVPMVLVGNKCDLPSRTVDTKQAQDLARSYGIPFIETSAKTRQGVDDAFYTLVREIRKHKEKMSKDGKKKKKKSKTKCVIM
# T2 sequence (P01116 1-188 isoform P01116-2): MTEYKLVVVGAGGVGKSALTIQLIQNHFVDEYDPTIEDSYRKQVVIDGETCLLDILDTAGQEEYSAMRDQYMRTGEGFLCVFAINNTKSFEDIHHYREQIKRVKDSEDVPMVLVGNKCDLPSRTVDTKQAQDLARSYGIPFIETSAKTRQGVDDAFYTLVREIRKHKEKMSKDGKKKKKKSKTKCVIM
Compound,IC50 [1],IC50 [2],IC50 [3],IC50 [4],"IC50 [2, 5]"
"C#Cc1c(F)ccc2cc(O)cc(-c3ncc4c(N5CCC(O)CC5)nc(OC[C@@]56CCCN5C[C@H](F)C6)nc4c3F)c12 (relative stereo) [Example 86, 1-[7-(8-ethynyl-7-fluoro-3-hydroxy-1-naphthyl)-8-fluoro-2-[[trans-2-fluoro-1,2,3,5,6,7-hexahydropyrrolizin-8-yl]methoxy]pyrido[4,3-d]pyrimidin-4-yl]piperidin-4-ol]",≤ 0.01 µM,≤ 0.01 µM,≤ 0.01 µM,≤ 0.01 µM,
"Oc1cc(-c2ncc3c(N4CCC5(CCNC5)CC4)nc(OCC45CCCN4CCC5)nc3c2F)c2ccccc2c1 [Example 2, 4-[4-(2,8-diazaspiro[4.5]decan-8-yl)-8-fluoro-2-(1,2,3,5,6,7-hexahydropyrrolizin-8-ylmethoxy)pyrido[4,3-d]pyrimidin-7-yl]naphthalen-2-ol]",0.1 to 10 µM,0.1 to 10 µM,0.1 to 10 µM,,
"Oc1cc(-c2ncc3c(N4CCOCC4)nc(OCC45CCCN4CCC5)nc3c2F)c2ccccc2c1 [Example 5, 4-[8-fluoro-2-(1,2,3,5,6,7-hexahydropyrrolizin-8-ylmethoxy)-4-(morpholin-4-yl)pyrido[4,3-d]pyrimidin-7-yl]naphthalen-2-ol]",0.1 to 10 µM,0.1 to 10 µM,0.1 to 10 µM,0.1 to 10 µM,
"CC1CN(c2nc(OCC34CCCN3CCC4)nc3c(F)c(-c4cc(O)cc5ccccc45)ncc23)CCO1 (stereo not shown) [Example 6, 4-[8-fluoro-2-(1,2,3,5,6,7-hexahydropyrrolizin-8-ylmethoxy)-4-(2-methylmorpholin-4-yl)pyrido[4,3-d]pyrimidin-7-yl]naphthalen-2-ol]",0.1 to 10 µM,0.1 to 10 µM,0.1 to 10 µM,0.1 to 10 µM,
"Oc1cc(-c2ncc3c(N4CC5CCC(C4)O5)nc(OCC45CCCN4CCC5)nc3c2F)c2ccccc2c1 [Example 7, 4-[8-fluoro-2-(1,2,3,5,6,7-hexahydropyrrolizin-8-ylmethoxy)-4-(8-oxa-3-azabicyclo[3.2.1]octan-3-yl)pyrido[4,3-d]pyrimidin-7-yl]naphthalen-2-ol]",0.1 to 10 µM,0.1 to 10 µM,0.1 to 10 µM,0.1 to 10 µM,
"COCCCNc1nc(OCC23CCCN2CCC3)nc2c(F)c(-c3cc(O)cc4ccccc34)ncc12 [Example 11, 4-[8-fluoro-2-(1,2,3,5,6,7-hexahydropyrrolizin-8-ylmethoxy)-4-(3-methoxypropylamino)pyrido[4,3-d]pyrimidin-7-yl]naphthalen-2-ol]",0.01 to 0.1 µM,0.1 to 10 µM,0.1 to 10 µM,0.1 to 10 µM,
"CC1COCCCN1c1nc(OCC23CCCN2CCC3)nc2c(F)c(-c3cc(O)cc4ccccc34)ncc12 (stereo not shown) [Example 18, 4-[8-fluoro-2-(1,2,3,5,6,7-hexahydropyrrolizin-8-ylmethoxy)-4-(3-methyl-1,4-oxazepan-4-yl)pyrido[4,3-d]pyrimidin-7-yl]naphthalen-2-ol]",0.01 to 0.1 µM,0.01 to 0.1 µM,0.01 to 0.1 µM,,
"O=S1(=O)CCCN(c2nc(OCC34CCCN3CCC4)nc3c(F)c(-c4cc(O)cc5ccccc45)ncc23)CC1 [Example 24, 4-[4-(1,1-dioxo-1,4-thiazepan-4-yl)-8-fluoro-2-(1,2,3,5,6,7-hexahydropyrrolizin-8-ylmethoxy)pyrido [4,3-d]pyrimidin-7-yl]naphthalen-2-ol]",0.1 to 10 µM,0.1 to 10 µM,0.01 to 0.1 µM,,
COC(=O)CCNc1nc(OCC23CCCN2CCC3)nc2c(F)c(-c3cc(O)cc4ccccc34)ncc12 [Example 25],0.1 to 10 µM,0.1 to 10 µM,0.1 to 10 µM,,
"CSCCCNc1nc(OCC23CCCN2CCC3)nc2c(F)c(-c3cc(O)cc4ccccc34)ncc12 [Example 26, 4-[8-fluoro-2-(1,2,3,5,6,7-hexahydropyrrolizin-8-ylmethoxy)-4-(3-methylsulfanylpropylamino)pyrido[4,3-d]pyrimidin-7-yl]naphthalen-2-ol]",0.1 to 10 µM,0.1 to 10 µM,0.1 to 10 µM,,
"COCCCN(C)c1nc(OCC23CCCN2CCC3)nc2c(F)c(-c3cc(O)cc4ccccc34)ncc12 [Example 28, 4-[8-fluoro-2-(1,2,3,5,6,7-hexahydropyrrolizin-8-ylmethoxy)-4-[3-methoxypropyl(methyl)amino]pyrido[4,3-d]pyrimidin-7-yl]naphthalen-2-ol]",0.1 to 10 µM,0.1 to 10 µM,0.1 to 10 µM,,
"Oc1cc(-c2ncc3c(N4CCC5COCC5C4)nc(OCC45CCCN4CCC5)nc3c2F)c2ccccc2c1 (stereo not shown) [Example 51, 4-[4-(3,3a,4,6,7,7a-hexahydro-1H-furo[3,4-c]pyridin-5-yl)-8-fluoro-2-(1,2,3,5,6,7-hexahydropyrrolizin-8-ylmethoxy)pyrido [4,3-d]pyrimidin-7-yl]naphthalen-2-ol]",0.1 to 10 µM,0.1 to 10 µM,0.1 to 10 µM,0.1 to 10 µM,
"CC1(C#N)CCN(c2nc(OCC34CCCN3CCC4)nc3c(F)c(-c4cc(O)cc5ccccc45)ncc23)CC1 [Example 63, 1-[8-fluoro-2-(1,2,3,5,6,7-hexahydropyrrolizin-8-ylmethoxy)-7-(3-hydroxy-1-naphthyl)pyrido[4,3-d]pyrimidin-4-yl]-4-methyl-piperidine-4-carbonitrile]",0.1 to 10 µM,0.1 to 10 µM,,,
"CC(=O)OCCCNc1nc(OCC23CCCN2CCC3)nc2c(F)c(-c3cc(O)cc4ccccc34)ncc12 [Example 64, 3-[[8-fluoro-2-(1,2,3,5,6,7-hexahydropyrrolizin-8-ylmethoxy)-7-(3-hydroxy-1-naphthyl)pyrido[4,3-d]pyrimidin-4-yl]amino]propyl acetate]",0.1 to 10 µM,0.1 to 10 µM,,,
"Oc1cc(-c2ncc3c(N4CC5CC4CC5O)nc(OCC45CCCN4CCC5)nc3c2F)c2ccccc2c1 (stereo not shown) [Example 66, 2-[8-fluoro-2-(1,2,3,5,6,7-hexahydropyrrolizin-8-ylmethoxy)-7-(3-hydroxy-1-naphthyl)pyrido[4,3-d]pyrimidin-4-yl]-2-azabicyclo[2.2.1] heptan-5-ol]",0.1 to 10 µM,0.1 to 10 µM,,,
NS(=O)(=O)CCCNc1nc(OCC23CCCN2CCC3)nc2c(F)c(-c3cc(O)cc4ccccc34)ncc12 [Example 67],0.1 to 10 µM,0.1 to 10 µM,,,
"CC1CN(c2nc(OCC34CCCN3CCC4)nc3c(F)c(-c4cc(O)cc5ccccc45)ncc23)CCC1O (stereo not shown) [Example 68, 1-[8-fluoro-2-(1,2,3,5,6,7-hexahydropyrrolizin-8-ylmethoxy)-7-(3-hydroxy-1-naphthyl)pyrido[4,3-d]pyrimidin-4-yl]-3-methyl-piperidin-4-ol]",0.1 to 10 µM,0.1 to 10 µM,,,
"CC1CC(O)CCN1c1nc(OCC23CCCN2CCC3)nc2c(F)c(-c3cc(O)cc4ccccc34)ncc12 (stereo not shown) [Example 69, 1-[8-fluoro-2-(1,2,3,5,6,7-hexahydropyrrolizin-8-ylmethoxy)-7-(3-hydroxy-1-naphthyl)pyrido[4,3-d]pyrimidin-4-yl]-2-methyl-piperidin-4-ol]",0.01 to 0.1 µM,0.1 to 10 µM,,,
"Oc1cc(-c2ncc3c(N4CC5CC(C4)C5O)nc(OCC45CCCN4CCC5)nc3c2F)c2ccccc2c1 (stereo not shown) [Example 71, 3-[8-fluoro-2-(1,2,3,5,6,7-hexahydropyrrolizin-8-ylmethoxy)-7-(3-hydroxy-1-naphthyl)pyrido[4,3-d]pyrimidin-4-yl]-3-azabicyclo[3.1.1] heptan-6-ol]",0.1 to 10 µM,0.1 to 10 µM,,,
"Oc1cc(-c2ncc3c(N4CCC5CCC(C4)O5)nc(OCC45CCCN4CCC5)nc3c2F)c2ccccc2c1 (stereo not shown) [Example 80, 4-[8-fluoro-2-(1,2,3,5,6,7-hexahydropyrrolizin-8-ylmethoxy)-4-(9-oxa-3-azabicyclo[4.2.1]nonan-3-yl)pyrido [4,3-d]pyrimidin-7-yl]naphthalen-2-ol]",0.1 to 10 µM,0.1 to 10 µM,,,
"Fc1c(-c2cccc3[nH]ncc23)ncc2c(N3CCCOCC3)nc(OCC34CCCN3CCC4)nc12 [Example 92, 4-[8-fluoro-2-(1,2,3,5,6,7-hexahydropyrrolizin-8-ylmethoxy)-7-(1H-indazol-4-yl)pyrido[4,3-d]pyrimidin-4-yl]-1,4-oxazepane]",0.1 to 10 µM,,,,> 10 µM
"Nc1nc2c(-c3ncc4c(N5CCCOCC5)nc(OCC56CCCN5CCC6)nc4c3F)cccc2s1 [Example 93, 4-[8-fluoro-2-(1,2,3,5,6,7-hexahydropyrrolizin-8-ylmethoxy)-4-(1,4-oxazepan-4-yl)pyrido[4,3-d]pyrimidin-7-yl]-1,3-benzothiazol-2-amine]",0.1 to 10 µM,0.1 to 10 µM,,,
"Fc1c(-c2cccc3[nH]ncc23)ncc2c(N3CCCOCC3)nc(OC[C@@]34CCCN3C[C@H](F)C4)nc12 [Example 95, 4-[8-fluoro-7-(1H-indazol-4-yl)-2-[[trans-2-fluoro-1,2,3,5,6,7-hexahydropyrrolizin-8-yl]methoxy]pyrido[4,3-d]pyrimidin-4-yl]-1,4-oxazepane]",0.1 to 10 µM,,,,> 10 µM
